# Values of other authors as cited in patent publication US6045822A, “Liposome preparations of indolocarbazole derivatives description” (Kyowa Hakko Kogyo Co., Ltd., priority 1996, dated 2000).
# Key:
# [1] = in words; Cancer Res., 51, 4888 (1991)
# [2] = tested on: protein kinase C; settings: in words; J. Antibiotics., 40, 1782 (1987)
smiles,measurement,setting,value
CNC1CC2OC(C)(C1OC)n1c3ccccc3c3c4c(c5c6ccccc6n2c5c31)C(=O)NC4O (centres unmarked) [UCN-01],anti-tumor activity,[1],has anti-tumor activity
same,protein kinase C inhibitory activity,[2],has protein kinase C inhibitory activity
